Reference: patent EP2255814A1, “AGENT FOR INCREASING THE QUANTITY OF HYALURONIC ACID” (Nagase ChemteX Corporation, priority 2008, dated 2009)

Legend:
hyaluronan synthase HAS2 = experiment: Augmentation effect on mRNA expression of hyaluronan synthase HAS2 (semi-quantitative RT-PCR); assay type: cell-based; details: human fibroblast NHDF(AD), phospholipid liposome in culture medium, 24 hours; concentrations only in Fig. 1
Experimental: Normal human fibroblasts (NHDF(AD); Kurabo Industries Ltd.) were seeded at 8×10^5/well in 6-well plates. After 24-hour preculture, the culture media were removed and replaced with culture media each containing a different phospholipid liposome prepared in Preparation Examples 2 to 4. The culture was maintained for 24 hours. Then, after removal of the culture medium and addition of 1 mL of ISOGEN (NIPPON GENE), RNA was extracted from the cells according to the usual method described in the attachment of ISOGEN.
cDNA preparation was performed using SuperScriptIII First-Strand Synthesis System for RT-PCR (Invitrogen) according to the operating procedures described in the attachment of the kit. RT-PCR was performed using primers below. HAS2 (Forward): […] (SEQ ID NO: 1) HAS2 (Reverse): […] (SEQ ID NO: 2) β-actin (Forward): […] (SEQ ID NO: 3) β-actin (Reverse): […] (SEQ ID NO: 4)
Using each of the obtained cDNA and the HAS2 primer set, PCR was performed for 29 cycles of 94°C for 1 min, 58°C for 1 min, and 72°C for 1 min. […] After completion of PCR, the PCR product was analyzed by electrophoresis in 1.5% agarose gel. Each band strength was determined by densitometry and the degree of increase in HAS2 mRNA expression was semi-quantitatively assessed by comparison of the HAS2/β-actin ratios between samples and the control. […]

[1] = test system: Normal human dermal fibroblasts (NHDF(AD)); experiment: Hyaluronan production promoting effect in fibroblasts (ELISA of culture supernatant); assay type: cell-based; details: phospholipid liposome at 100 µg/mL, 24 hours
Experimental: Normal human dermal fibroblasts (NHDF(AD); Kurabo Industries, Ltd.) were seeded at 2×10^5/well in 24-well plates. After 24-hour preculture, the culture media were removed and replaced with culture media each containing a different phospholipid liposome at 100 µg/mL, i.e. , the PI-PS containing liposome obtained in Preparation Example 2, the PI liposome obtained in Preparation Example 3, or the PS liposome obtained in Preparation Example 4. The culture was maintained for 24 hours. The culture supernatant was collected and hyaluronan therein was quantified by the ELISA method.
A hyaluronan binding protein (HABP; SEIKAGAKU CORPORATION) was added at 2 µg/mL to 96-well plates, which were then allowed to stand at 4°C for 24 hours. After this, the wells were washed. Blocking was performed at 4°C for 24 hours using Block Ace (Dainippon Sumitomo Pharma Co., Ltd.). After the wells were washed, a hyaluronan standard (Wako Pure Chemical Industries, Ltd.) or the culture supernatant was added to the wells and 1-hour incubation was performed at 37°C. After the wells were washed, biotinylated HABP (SEIKAGAKU CORPORATION) was added to the wells and 2-hour incubation was performed at 37°C. […] After the reaction at 37°C for 30 minutes, the absorbance at 405 nm was measured.

| Substance | mRNA expression of HAS2 (HAS2/β-actin ratio relative to control cells) (hyaluronan synthase HAS2) | production of hyaluronan [1] |
| --- | --- | --- |
| L-α-phosphatidylserine [PS] | significantly increased | significantly increased |
| L-α-phosphatidylinositol Na [PI] | significantly increased | significantly increased |
